{
  "source": "patent US9999760B2",
  "about": "“DVDMS sensitizer for cancer sonodynamic therapy” (priority 2015, dated 2018)",
  "key": {"[1]": {"test_system": "leukemia cells (K562, U937)", "test": "MTT assay of cytotoxicity and sonotoxicity in leukemia cells", "assay_type": "cell-based", "procedure": "(§1) Two kinds of leukemia cells (K562, U937) as main tumor cell models and cells (peripheral blood mononuclear cells, spleen lymphocytes) separated from healthy ICR mice as normal cell models were used. The multivolume spectrophotometer system and fluorescence spectrophotometer were used to determine the spectral characteristics of DVDMS. The uptake of DVDMS by tumor cells and normal cells was measured by flow cytometry. The MTT assay was used to examine the cytotoxicity and sonotoxicity of DVDMS."}, "[2]": {"test_system": "peripheral blood mononuclear cells, spleen lymphocytes", "test": "MTT assay of cytotoxicity in normal cells", "assay_type": "cell-based, ICR mice", "procedure": "as §1"}, "[3]": {"test_system": "tumor cells (K562, U937) and normal cells", "test": "Cellular uptake by flow cytometry in tumor cells and normal cells", "assay_type": "cell-based", "settings": "tumor cells compared with normal healthy cells", "procedure": "as §1"}, "[4]": {"test": "Spectral characteristics (absorption and fluorescence emission spectra)", "assay_type": "physicochemical", "procedure": "as §1"}, "[5]": {"test_system": "cancerous and normal cells", "test": "Autofluorescence intensity and singlet oxygen production in cells", "assay_type": "cell-based", "settings": "compared with other photosensitizers / Photofrin"}, "[6]": {"test_system": "ECA-109 cells", "test": "Sonodynamic therapy in ECA-109 cells", "assay_type": "cell-based", "excerpt": "Abundant intracellular reactive oxygen species (ROS) was found in the SDT groups, and the cytotoxicity induced by SDT was effectively remitted by ROS scavengers. […] Release of cytochrome C, an increased rate of apoptosis, and activated apoptosis protein were detected in the SDT group. In addition, relatively severe cell damage was observed on scanning electron microscopy after treatment with DVDMS and SDT."}, "[7]": {"test_system": "sarcoma 180 solid tumors", "test": "Sonodynamic antitumor effect in mice bearing sarcoma 180 solid tumors", "assay_type": "in vivo", "procedure": "In order to determine the optimum timing of ultrasound exposure after administration of DVDMS, a three-dimensional optical imaging system (IVIS spectrum) was used to observe the biodistribution of DVDMS in S180 tumor. The antitumor effects were estimated by the tumor inhibition ratio (volume and weight) after sonodynamic therapy. […] A significant synergistic effect of ultrasound combined with DVDMS was obtained when the load power indicated 4 W and DVDMS dose was above 2 mg/kg. […] Conclusions: DVDMS is a potential sensitizer for sonodynamic cancer therapy. The antitumor effect of ultrasound could be enhanced in the presence of DVDMS, which might be involved in a sonochemical mechanism."}, "[8]": {"test_system": "4T1 mammary cancer", "test": "Photodynamic therapy in 4T1 mammary cancer-bearing mice", "assay_type": "in vivo", "settings": "for tumor volume inhibition ratio: 17th day", "procedure": "At the beginning, we have pointed out that DVDMS is an active component isolated from Photofrin™ II. So it would be very interesting to compare the in vivo anti-cancer efficacy of DVDMS-PDT with PHOTOFRIN™-PDT (PF-PDT).\nRepresentative mice were photographed at 6, 12, or 18 days after the corresponding treatments. […] However, tumor size decreased in a dose-dependent manner with increasing DVDMS and light exposure.\nThe tumor volume and tumor weight results were evaluated for each group.\nOn the 19th day, the tumors were photographed and the average tumor weight in each group was calculated."}, "[9]": {"test_system": "brain stem tumor", "test": "Clinical cases of SDT for tumors of the brain stem", "assay_type": "in vivo, patient", "procedure": "Below are two typical clinical cases where SDT was selected for treatment of tumors of the brain stem. For Photofrin™ the dosage was 2 mg/kg of body weight. For DVDMS, the dosage was 0.2 mg/kg of body weight, a factor of ten less than Photofrin™. The ultrasound frequency was 0.5 to 1 MHz and the ultrasound power was 0.1 W/cm^2 to 1.5 W/cm^2. Ultrasound treatment is delayed after injection to permit absorbance of the sonodynamic compound into the tumor or other hyperproliferative tissue. In the case of Photofrin™ the delay is extensive, e.g. 20 to 30 hours. […] Due to differential absorption times into tumor, patient was intravenously injected with Photofrin™ 24 hours before ultrasound treatment and DVDMS was intravenously injected two hours prior to ultrasound treatment. Treatment occurred each time for 20-30 minutes and total time to treat three times was 72 hours."}, "[10]": {"test_system": "skin", "test": "Dermatological phototoxicity and skin retention after treatment", "set-up": "species or system patient", "settings": "in vivo"}},
  "data": [
    {"smiles": "C=Cc1c(C)c2cc3nc(cc4[nH]c(cc5nc(cc1[nH]2)C(C)=C5C(C)OC(C)C1=C(C)c2cc5[nH]c(cc6nc(cc7[nH]c(cc1n2)c(C)c7CCC(=O)[O-])C(CCC(=O)[O-])=C6C)c(C)c5C=C)c(C)c4CCC(=O)[O-])C(CCC(=O)[O-])=C3C.[Na+].[Na+].[Na+].[Na+]", "note": "(stereo not shown) [DVDMS]", "values": [
      {"measurement": "sonotoxicity: cell-damaging effect of ultrasound in the presence of DVDMS", "setting": "[1]; MTT, under appropriate conditions", "result": "significantly enhanced"},
      {"measurement": "cytotoxicity by the MTT method", "setting": "[1]; without ultrasound", "result": "dose dependent"},
      {"measurement": "cytotoxicity to normal cells", "setting": "[2]", "result": "little cytotoxicity"},
      {"measurement": "cellular uptake and accumulation", "setting": "[3]", "result": "quick cellular uptake and selective accumulation in tumor cells"},
      {"measurement": "absorption spectra, maximum peak", "setting": "[4]", "result": 359, "unit": "nm"},
      {"measurement": "fluorescence emission", "setting": "[4]", "result": 642, "unit": "nm"},
      {"measurement": "autofluorescence intensity", "setting": "[5]", "result": "significantly higher"},
      {"measurement": "singlet oxygen production efficiency", "setting": "[5]", "result": "significantly higher"},
      {"measurement": "subcellular location", "setting": "[6]", "result": "mainly to the mitochondria"},
      {"measurement": "SDT cytotoxicity", "setting": "[6]; compared with hematoporphyrin", "result": "more cytotoxic"},
      {"measurement": "tumor weight inhibition ratio", "setting": "[7]; DVDMS alone, no ultrasound", "result": 23.15, "unit": "%"},
      {"measurement": "biodistribution (IVIS spectrum optical imaging)", "setting": "[7]; S180 tumor-bearing mice", "result": "preferential localization in tumors, but a low accumulation in most normal tissues"},
      {"measurement": "metastasis", "setting": "[7]; SDT-treated mice compared with the control group", "result": "no metastasis occurred"},
      {"measurement": "tumor volume inhibition ratio", "setting": "[7]; day 14 after DVDMS-SDT", "result": 56.27, "unit": "%"},
      {"measurement": "tumor weight inhibition ratio", "setting": "[7]; synergistic treatment (ultrasound combined with DVDMS)", "result": 55.37, "unit": "%"},
      {"measurement": "tumor size versus PF group", "setting": "[8]; 2 mg/kg DVDMS vs 10 mg/kg PF, same light exposure 100 J/cm^2", "result": "less than in the 10 mg/kg PF group"},
      {"measurement": "tumor volume inhibition ratio", "setting": "[8]; 1 mg/kg DVDMS+50 J/cm^2, vs control", "result": 38.51, "unit": "%"},
      {"measurement": "tumor volume inhibition ratio", "setting": "[8]; 2 mg/kg DVDMS alone, vs control", "result": 7.42, "unit": "%"},
      {"measurement": "tumor volume inhibition ratio", "setting": "[8]; 2 mg/kg DVDMS+50 J/cm^2, vs control", "result": 59.23, "unit": "%"},
      {"measurement": "tumor volume inhibition ratio", "setting": "[8]; 2 mg/kg DVDMS+100 J/cm^2, vs control", "result": 66.97, "unit": "%"},
      {"measurement": "tumor volume inhibition ratio", "setting": "[8]; 2 mg/kg DVDMS+150 J/cm^2, vs control", "result": 78.12, "unit": "%"},
      {"measurement": "tumor volume inhibition ratio", "setting": "[8]; group (2) mg/kg DVDMS+50 J/cm^2 (dose not given), vs control", "result": 18.61, "unit": "%"},
      {"measurement": "survival of tumor-bearing mice", "setting": "[8]; DVDMS-PDT compared to control and DVDMS-only groups (p<0.01)", "result": "significantly prolonged"},
      {"measurement": "survival of tumor-bearing mice versus PF-PDT", "setting": "[8]; DVDMS-PDT vs PF-PDT (p<0.05)", "result": "more effective than PF-PDT"},
      {"measurement": "tumor volume and tumor weight", "setting": "[8]; nineteen days after treatment, DVDMS plus light exposure vs control or DVDMS alone", "result": "significantly lower"},
      {"measurement": "time to what appears to be complete remission", "setting": "[9]; SDT, 0.2 mg/kg", "result": "≤ 30", "unit": "days"},
      {"measurement": "absorbance into the tumor after injection", "setting": "[9]; compared with Photofrin", "result": "absorbance is much quicker"},
      {"measurement": "efficacy in sonic treatment relative to Photofrin II", "setting": "[9]; injected into a host", "result": "about ten times higher"},
      {"measurement": "cranial MRI on review after SDT treatment", "setting": "[9]; patient, 0.2 mg/kg", "result": "tumor was absorbed, brain stem edema was significantly reduced"},
      {"measurement": "head MRI 30 days after treatment", "setting": "[9]; patient, 0.2 mg/kg", "result": "ventral brain stem tumor has disappeared"},
      {"measurement": "dermatological phototoxicity", "setting": "[10]", "result": "lacking dermatological phototoxicity"}
    ]}
  ]
}
